Where “and” joins values, the source holds several entries; their conditions need not be identical. Identical values can stand only once.
Experiments:
Assay type in all cases: in vivo
Plutella xylostella [1] = experiment: Reference Test Example 1 Pest control test of Plutella xylostella (foliar treatment, single agent); conditions: Plutella xylostella, foliar, 72 h
Text: (§1) After an air drying process, second instar larvae were released thereto. […] Test in duplicate.

Laodelphax striatella = experiment: whole plant or invertebrate
Protocol: (§2) After an air drying process, second instar larvae were released thereto. […] The test was performed in duplicate.
(§3) Method for Judging Synergistic Effects

Plutella xylostella [2] = experiment: whole plant or invertebrate
Protocol: as §2, §3

Nephotettix cincticeps = experiment: Reference Test Example 7 Pest control test of Nephotettix cincticeps (foliar treatment, single agent); conditions: 96 h
Text: as §1

Naranga aenescens = system: Naranga aenescens
Protocol: After standing for 3 days, first instar larvae were released thereto. […] The test was performed in duplicate.
as §3

Aphis gossypii = experiment: Reference Test Example 3 Pest control test of Aphis gossypii (foliar treatment, single agent); conditions: Aphis gossypii, foliar, 72 h
Protocol: After an air drying process, first instar larvae were released thereto. Thereafter, the larvae were left to stand in a thermostatic chamber (16 hours of light period-8 hours of dark period) at 25° C. […] Test in duplicate. Mortality (%)={number of dead larvae/(number of survived larvae+number of dead larvae)}×100

[3] = system: Nilaparvata lugens resistant population I; experiment: Reference Test Example 19 Pest control test of Nilaparvata lugens, resistant population I (soil drench); conditions: for Insecticidal effects against Nilaparvata lugens (death rate %), Resistant population I: soil drench, six days
Protocol: Three days after the treatment, ten second instar larvae of Nilaparvata lugens, which had been collected outdoors and proliferated indoors, were each released to the rice seedling. […] Test in duplicate.
Furthermore, for comparison, the test against a species of Nilaparvata lugens which is highly susceptible to imidacloprid was performed by the same method as described above, and the results thereof are shown in Table 45. […] Meanwhile, the death rates of imidacloprid at 0.05 mg/seedling were (susceptible species) 100%, (resistant population I) 38% and (resistant population II) 69%, and the insecticidal effect thereof was also low even at a high dose. From the above results, it became obvious that Compound P212 and Compound 1-20 have high insecticidal effects even against Nilaparvata lugens resistance against imidacloprid.
Further, for the origin of test pests, bugs collected outdoors from the Kumamoto prefecture (I) in 2007 and from the Fukuoka prefecture (II) in 2005 as resistant population of Nilaparvata lugens, and bugs collected from the Kagoshima prefecture and then successively reared indoors for a long time as the imidacloprid susceptible population of Nilaparvata lugens were used.

[4] = system: Trigonotylus caelestialium; experiment: Reference Test Example 10 Pest control test of Trigonotylus caelestialium (dipping treatment); conditions: 72 h
Protocol: After an air drying process, the wheat seedling leaves and stems were placed into a glass tube, and two second instar larvae of Trigonotylus coelestialium were released to the same glass tube. After the larvae were released, the tube was lidded to leave the larvae to stand in a thermostatic chamber at 25° C. In order to supply water to the wheat during the test, water was given to the wheat from the bottom of the glass tube. […] Test in triplicate.

Compound: O=C(N=c1ccccn1Cc1ccc(Cl)nc1)C(F)(F)F [Compound P212, N-[1-((6-chloropyridin-3-yl)methyl)pyridin-2(1H)-ylidene]-2,2,2-trifluoroacetamide]
- mortality at 100 ppm (Plutella xylostella [1]): ≥ 80%
- Theoretical value by Colby's equation (Laodelphax striatella; Laodelphax striatella foliar, single agent 0.625 ppm (other component 0)): 95%
- mortality at 0.625 ppm (Laodelphax striatella; Laodelphax striatellus, foliar, 72 h, read-out: Mortality of single agent against Laodelphax striatella): 95%
- mortality at 1 ppm (Plutella xylostella [2]; Plutella xylostella, foliar, 72 h, read-out: Mortality of single agent against Plutella xylostella, single agent 1.0 ppm, cabbage leaf disk spray, three days): 40%
- mortality at 1.25 ppm (Plutella xylostella [2]; Plutella xylostella, foliar, 72 h, read-out: Mortality of single agent against Plutella xylostella, single agent 1.25 ppm, cabbage leaf disk spray, three days): 0%
- mortality at 2 ppm (Plutella xylostella [2]; Plutella xylostella, foliar, 72 h, read-out: Mortality of single agent against Plutella xylostella, single agent 2.0 ppm, cabbage leaf disk spray, three days): 60%
- Theoretical value by Colby's equation (Plutella xylostella [2]; Plutella xylostella, single agent 1.0 ppm (other component 0)): 40% and 30%
- Theoretical value by Colby's equation (Plutella xylostella [2]; Plutella xylostella, single agent 1.25 ppm (other component 0)): 0%
- Theoretical value by Colby's equation (Plutella xylostella [2]; Plutella xylostella, single agent 2.0 ppm (other component 0)): 60% and 50%
- Mortality of single agent against Plutella xylostella (Plutella xylostella [2]; single agent 1.0 ppm, cabbage leaf disk spray, three days): 30%
- Mortality of single agent against Plutella xylostella (Plutella xylostella [2]; single agent 2.0 ppm, cabbage leaf disk spray, three days): 50%
- mortality at 100 ppm (Nephotettix cincticeps): ≥ 80%
- Theoretical value by Colby's equation (Naranga aenescens; Naranga aenescens, single agent 0.01 mg/seedling (other component 0)): 60%
- Mortality of single agent against Naranga aenescens (Naranga aenescens; single agent 0.01 mg/seedling, soil irrigation, five days after release): 60%
- mortality at 100 ppm (Aphis gossypii): ≥ 80%
- death rates of larvae ([3]; resistant population I, 0.005 mg/seedling, six days after the release): 95%
- Insecticidal effects against Nilaparvata lugens (death rate %), Resistant population I ([3]; throughput 0.005 mg/seedling): 95%
- Insecticidal effects against Nilaparvata lugens (death rate %), Resistant population I ([3]; throughput 0.05 mg/seedling): 100%
- mortality at 50 ppm [4]: ≥ 80%

Reference: patent publication US11771086B2, “Pest control composition including novel iminopyridine derivative” (priority 2012, dated 2023)
